Experiment [1] concerns yellow nutsedge (Cyperus esculentus) (CYPES). Description: post-emergent herbicidal test, yellow nutsedge. Format: in vivo. Conditions: Cyperus, post-emergence, post-emergent, 1.0 kg/ha (*), 17-21 days after application; read-out: CYPES percent control. The method, boiled down: (§1)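 Percent injury (0 = no effect, 100 = complete kill) scored 17–21 days post-treatment against untreated flats. Foliar spray at 1 or 4 kg/ha in deionized water plus 0.5% v/v Tween 20, onto greenhouse plants (29/21 °C, 14 h light) at 3–4 leaf (grasses) or 1–2 leaf (broadleaves) stage.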

Experiment [2] relates to barnyard grass (Enchinochloa crusgalli) (ECHCG). Description: post-emergent herbicidal test, barnyard grass. The format is in vivo. Conditions: Echinochloa crus-galli, post-emergence, post-emergent, 1.0 kg/ha (*), 17-21 days after application; read-out: ECHCG percent control. The method, boiled down: as §1
In experiment [3] the test system is farnesyl pyrophosphate synthase in daffodil chromoplasts. Description: inhibition of farnesyl pyrophosphate synthase in daffodil chromoplasts (14C-isopentenyl pyrophosphate incorporation). Format: biochemical, Narcissus pseudonarcissus. Conditions: unit inferred, IC50 values in nM, read-out: IC50. The method, boiled down: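 Daffodil chromoplasts in pH 7.7 sucrose/MgCl2/HEPES buffer with cysteine, NaF and BSA, started with ~3 micromolar 14C-isopentenyl pyrophosphate, 30 min at 30° C. Butanol-extractable radioactivity counted by scintillation; % residual activity calculated against zero-time and end-point no-inhibitor controls.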

Experiment [4] deals with morningglory (Ipomoea spp.) (IPOSS). Description: post-emergent herbicidal test, morningglory. Format: in vivo. Conditions: Ipomoea, post-emergence, post-emergent, 1.0 kg/ha (*), 17-21 days after application; read-out: IPOSS percent control. The method, boiled down:
as §1

The subject of experiment [5] is wild oat (Avena fatua) (AVEFA). Description: post-emergent herbicidal test, wild oat. The note with it: Avena fatua, post-emergence; post-emergent, 1.0 kg/ha (*), 17-21 days after application; read-out: AVEFA percent control. The format is in vivo. The method, boiled down: as §1
The subject of experiment [6] is green foxtail (Setaria viridis) (SETVI). The experiment in a line: post-emergent herbicidal test, green foxtail. The note with it: Setaria viridis, post-emergence, post-emergent, 1.0 kg/ha (*), 17-21 days after application; read-out: SETVI percent control. Format: in vivo. The method in brief:
as §1

The test system of experiment [7] is wild mustard (Brassica kaber), also known as Sinapis arvensis (SINAR). The experiment in a line: post-emergent herbicidal test, wild mustard. The format is in vivo. Conditions: Brassica, post-emergence, post-emergent, 1.0 kg/ha (*), 17-21 days after application; read-out: SINAR percent control. The method, boiled down:
as §1

The test system of experiment [8] is velvetleaf (Abutilon theophrasti) (ABUTH). The experiment in a line: post-emergent herbicidal test, velvetleaf. Conditions: Abutilon theophrasti, post-emergence, post-emergent, 1.0 kg/ha (*), 17-21 days after application; read-out: ABUTH percent control. The format is in vivo. The method in brief: as §1

Read-outs that look alike come from different tables or passages of the source.

As a reminder, the IC50 is the concentration that inhibits the measured activity by half.

On to `O=P(O)(O)C(CN1CC=CCC1)P(=O)(O)O` [Compound 45], for which the pest or weed control at 1000 g/ha was 50% in experiment [1]; 100% in experiment [2]; 100% in experiment [4]; 100% in experiment [5]; 100% in experiment [6]; 100% in experiment [7]. In addition, the pest or weed control at 1000 g/ha in experiment [8] worked out at 90%. The IC50 in experiment [3] (Table I) and in experiment [3] (Table II) was 26 nM each time.

`O=P(O)(O)C(CNC1Cc2ccccc2C1)P(=O)(O)O` [Compound 46]: the pest or weed control at 1000 g/ha in experiment [1] turned out to be 10%; in experiment [2], 15%; in experiment [4], 0%; in experiment [5], 50%; in experiment [6] it was 20%; in experiment [7], 5%. In addition, in experiment [8], the pest or weed control at 1000 g/ha is 5%. The IC50 in experiment [3] (Table I) and in experiment [3] (Table II) was 440 nM each time.

As to `CC1(C)CCCN(CC(P(=O)(O)O)P(=O)(O)O)C1` [Compound 47], the pest or weed control at 1000 g/ha in experiment [1] worked out at 0%; in experiment [2], 0%; in experiment [4], 0%; in experiment [5] it was 0%; in experiment [6], 10%; in experiment [7] it was 5%. Further, the pest or weed control at 1000 g/ha in experiment [8] is 0%. Further, the half-maximal inhibitory concentration (IC50) in experiment [3] (Table I) and in experiment [3] (Table II) was 2280 nM each time.

In the case of `CCC(C)NCC(P(=O)(O)O)P(=O)(O)O` (stereo not drawn) [Compound 48], the pest or weed control at 1000 g/ha in experiment [1] was 50%; in experiment [2] it was 98%; in experiment [4], 95%; in experiment [5] it was 100%; in experiment [6] it was 95%; in experiment [7], 100%. For the same compound, the pest or weed control at 1000 g/ha in experiment [8] came out at 60%. In addition, the IC50 in experiment [3] (Table I) and in experiment [3] (Table II) was 32 nM in each case.

In the case of `O=P(O)(O)C(CNC1CCc2ccccc21)P(=O)(O)O` (stereo not drawn) [Compound 49], the pest or weed control at 1000 g/ha came to 10% in experiment [1]; 50% in experiment [2]; 10% in experiment [4]; 60% in experiment [5]; 15% in experiment [6]; 10% in experiment [7]. Besides, the pest or weed control at 1000 g/ha in experiment [8] worked out at 5%. Besides, the IC50 in experiment [3] (Table I) and in experiment [3] (Table II) was 1730 nM each time.

With `CC1CCCC1NCC(P(=O)(O)O)P(=O)(O)O` (stereo not drawn) [Compound 50], the pest or weed control at 1000 g/ha came to 5% in experiment [1]; 60% in experiment [2]; 5% in experiment [4]; 50% in experiment [5]; 85% in experiment [6]; 85% in experiment [7]. Moreover, in experiment [8], the pest or weed control at 1000 g/ha was 5%. For the same compound, the half-maximal inhibitory concentration (IC50) in experiment [3] (Table I) and in experiment [3] (Table II) was 232 nM in each case.

In the case of `CCCN(CC(C)C)CC(P(=O)(O)O)P(=O)(O)O` [Compound 51], the pest or weed control at 1000 g/ha in experiment [1] was 5%; in experiment [2] it was 98%; in experiment [4], 15%; in experiment [5], 100%; in experiment [6], 98%; in experiment [7], 100%. The pest or weed control at 1000 g/ha in experiment [8] is 70%. The IC50 in experiment [3] (Table I) and in experiment [3] (Table II) was 91 nM in each case.

For `CCCCN(CCC)CC(P(=O)(O)O)P(=O)(O)O` [Compound 52], the pest or weed control at 1000 g/ha in experiment [1] is 20%; in experiment [2], 100%; in experiment [4], 20%; in experiment [5] it was 100%; in experiment [6], 100%; in experiment [7], 100%. Besides, in experiment [8], the pest or weed control at 1000 g/ha came out at 75%. The IC50 in experiment [3] (Table I) and in experiment [3] (Table II) was 87 nM each time.

`CCC1CCCCN1CC(P(=O)(O)O)P(=O)(O)O` (stereo not drawn) [Compound 53]: the pest or weed control at 1000 g/ha in experiment [1] stood at 5%; in experiment [2] it was 100%; in experiment [4] it was 30%; in experiment [5] it was 98%; in experiment [6], 98%; in experiment [7], 90%. The pest or weed control at 1000 g/ha in experiment [8] amounted to 70%. For the same compound, the IC50 in experiment [3] (Table I) and in experiment [3] (Table II) was 112 nM each time.

Regarding `CCCN(CCC(=O)O)CC(P(=O)(O)O)P(=O)(O)O` [Compound 54], the pest or weed control at 1000 g/ha in experiment [1] turned out to be 0%; in experiment [2], 0%; in experiment [4] it was 5%; in experiment [5], 0%; in experiment [6], 10%; in experiment [7], 10%. Moreover, the pest or weed control at 1000 g/ha in experiment [8] came out at 0%. The IC50 in experiment [3] (Table I) and in experiment [3] (Table II) was 479 nM in each case.

On to `CC[C@H](C)NCC(P(=O)(O)O)P(=O)(O)O` [Compound 56], for which the pest or weed control at 1000 g/ha in experiment [1] amounted to 60%; in experiment [2] it was 100%; in experiment [4] it was 98%; in experiment [5] it was 100%; in experiment [6], 100%; in experiment [7], 100%. In experiment [8], the pest or weed control at 1000 g/ha was determined as 95%. The IC50 in experiment [3] (Table I) and in experiment [3] (Table II) was 32 nM throughout.

For `CC1CCCN(CC(P(=O)(O)O)P(=O)(O)O)C1C` (stereo not drawn) [Compound 57], the pest or weed control at 1000 g/ha in experiment [1] is 15%; in experiment [2], 100%; in experiment [4] it was 90%; in experiment [5] it was 100%; in experiment [6] it was 100%; in experiment [7] it was 100%. In addition, the pest or weed control at 1000 g/ha in experiment [8] is 80%. For the same compound, the IC50 in experiment [3] (Table I) and in experiment [3] (Table II) was 96 nM throughout.

Consider `Cc1cn(CC(P(=O)(O)O)P(=O)(O)O)cn1` [Compound 58], for which the pest or weed control at 1000 g/ha in experiment [1] amounted to 10%; in experiment [2] it was 98%; in experiment [4], 90%; in experiment [5], 100%; in experiment [6], 100%; in experiment [7], 100%. Also, the pest or weed control at 1000 g/ha in experiment [8] was 98%. Further, the IC50 in experiment [3] (Table I) and in experiment [3] (Table II) was 107 nM each time.

On to `CCCCCCN(CCC)CC(P(=O)(O)O)P(=O)(O)O` [Compound 59], for which the pest or weed control at 1000 g/ha in experiment [1] stood at 5%; in experiment [2], 90%; in experiment [4], 20%; in experiment [5], 85%; in experiment [6], 95%; in experiment [7], 90%. The pest or weed control at 1000 g/ha in experiment [8] was 30%. Besides, the IC50 in experiment [3] (Table I) and in experiment [3] (Table II) was 135 nM throughout.

As to `Cc1cnn(CC(P(=O)(O)O)P(=O)(O)O)c1` [Compound 60], the pest or weed control at 1000 g/ha in experiment [1] amounted to 0%; in experiment [2], 30%; in experiment [4], 5%; in experiment [5] it was 10%; in experiment [6], 30%; in experiment [7], 20%. In addition, the pest or weed control at 1000 g/ha in experiment [8] amounted to 10%. Moreover, the IC50 in experiment [3] (Table I) and in experiment [3] (Table II) was 1410 nM in each case.

As for `CCCN(CCC(C)C)CC(P(=O)(O)O)P(=O)(O)O` [Compound 61], the pest or weed control at 1000 g/ha in experiment [1] amounted to 10%; in experiment [2], 100%; in experiment [4], 30%; in experiment [5], 100%; in experiment [6], 90%; in experiment [7], 90%. For the same compound, in experiment [8], the pest or weed control at 1000 g/ha amounted to 70%. Also, the IC50 in experiment [3] (Table I) and in experiment [3] (Table II) was 1000 nM in each case.

For the compound `CCCCCN(CCC)CC(P(=O)(O)O)P(=O)(O)O` [Compound 62], the pest or weed control at 1000 g/ha in experiment [1] came to 10%; in experiment [2] it was 85%; in experiment [4] it was 30%; in experiment [5], 100%; in experiment [6], 95%; in experiment [7] it was 85%. In experiment [8], the pest or weed control at 1000 g/ha was found to be 15%. Besides, the IC50 in experiment [3] (Table I) and in experiment [3] (Table II) was 186 nM each time.

Values taken from patent US5756423A, “Method of controlling plants by inhibition of farnesyl pyrophosphate synthase” (Zeneca Limited, priority 1997, dated 1998).
